US6977261B2, “Azaisoquinoline derivatives as matrix metalloproteinase inhibitors” (Warner-Lambert Company LLC, priority 2002, dated 2005)

Biological target: human MMP-13 catalytic domain (hMMP-13CD) (Homo sapiens, UniProt P45452)
Assay: Inhibition of MMP-13 catalytic domain (thiopeptolide substrate assay)
Format: biochemical
Excerpt: The assays measure the amount by which a test compound reduces the hydrolysis of a thiopeptolide substrate catalyzed by a matrix metalloproteinase enzyme. Such assays are described in detail by Ye et al., in Biochemistry, 1992;31(45):11231-11235, which is incorporated herein by reference. One such assay is described below in Biological Method 1.
Some of the particular methods described below use the catalytic domain of the MMP-13 enzyme, namely matrix metalloproteinase-13 catalytic domain (“MMP-13CD”), rather than the corresponding full-length enzyme, MMP-13. It has been shown previously by Ye Qi-Zhuang, Hupe D., and Johnson L. (Current Medicinal Chemistry, 1996;3:407-418) that inhibitor activity against a catalytic domain of an MMP is predictive of the inhibitor activity against the respective full-length MMP enzyme.
Thiopeptolide substrates show virtually no decomposition or hydrolysis at or below neutral pH in the absence of a matrix metalloproteinase enzyme. A typical thiopeptolide substrate commonly utilized for assays is Ac-Pro-Leu-Gly-thioester-Leu-Leu-Gly-OEt. […] The change in absorbance at 405 nm is monitored on a Thermo Max microplate reader (molecular Devices, Menlo Park, Calif.) at room temperature (22° C.). […]
Some representative compounds of Formula I have been evaluated for their ability to inhibit MMP-13. […]

IC50: > 50 µM
SMILES: O=C(O)c1ccc(Cn2ccc3ccc(C#CCn4ccnn4)cc3c2=O)cc1 [4-[1-oxo-7-(3-[1,2,3]triazol-1-ylprop-1-ynyl)-1H-isoquinolin-2-ylmethyl]benzoic acid]
